Experimental data as given in US20240270762A1, “PENICILLIN-BINDING PROTEIN INHIBITORS” (priority 2021, published 2024).
≈ marks a conversion by molar mass, not a printed value.

Columns and labels:
N. gonorrhoeae WHO L = assay: Liquid broth MIC in Fastidious broth; conditions: Neisseria gonorrhoeae, read-out: Minimum Inhibitory Concentration (MIC), N. gonorrhoeae WHO L
Procedure: Liquid broth-based assays were used for antibacterial testing of PBP inhibitors in Neisseria gonorrhoeae. Briefly, cryo-preserved bacterial cultures of clinical strains were streaked for isolation on Chocolate Agar (72 g/L (2×) GC Agar Base (BD #228950) and 2% (2×) Hemoglobin was autoclaved at 121° C. for 20 minutes to sterilize. Once cooled to ˜50° C. the 2×GC Agar Base and 2× Hemoglobin solutions are combined and 1% IsoVitaleX Enrichment (BD #211876) was added to the solution). Strains were incubated at 36° C. and 5% CO2 to allow growth of colonies, 24 hours before inoculum preparation. 2-fold serial dilutions of test compounds were conducted in a 96 well plate with a final volume of 75 μL per well at 2-fold the final desired concentration in Fastidious broth (Remel #R07664). For preparation of assay inoculum, a direct suspension was prepared by aseptically swabbing 10-15 colonies from agar plates into culture tubes containing 2 mL of fresh sterile saline. After the dilution plates were set up, direct suspensions were then diluted in a cuvette containing sterile saline and the optical density was measured at 600 nm. Inocula were diluted such that 75 μL of this culture in Fastidious broth results in a starting bacterial concentration of 5×10^5 CFU/mL when added to the dilution plates. The plates were incubated for ˜24 hours at 36° C. and 5% CO2.

N. gonorrhoeae MS11 = assay: Liquid broth MIC in Fastidious broth; conditions: Neisseria gonorrhoeae, MS11, read-out: Minimum Inhibitory Concentration (MIC), N. gonorrhoeae MS11
[1] = molecular target: T1, PBP3 from Escherichia coli (K-12) (Escherichia coli, UniProt P0AD68); assay: Bocillin-FL fluorescence polarization competition binding, E. coli PBP3
T1 construct: made in house
Excerpt: To determine the ability of boronic acid-based test PBP inhibitors to bind Penicillin Binding Proteins (PBPs), Bocillin-FL (fluorescently-labeled penicillin V; ThermoFisher Scientific) was used in a fluorescence polarization (FP) competition binding assay to assess inhibitor binding to PBP3 from Escherichia coli (K-12), PBP3 from Pseudomonas aeruginosa (PAO1), PBP1a and PBP3 from Acinetobacter baumannii (ATCC 19606), and PBP2 from Neisseria gonorrhoeae (FA19). PBPs were cloned and purified as described previously (E. coli PBP3, King, D. T, et al., ACS Infectious Diseases 2015, 1, 175-184; P. aeruginosa PBP3, Han et. al., PNAS 2010, 107 (51), 22002-22007; A. baumannii PBPs, Penwell et. al., Antimicrob. Agents Chemother. 2015, 59 (3), 1680-1689; N. gonorrhoeae PBP2, Singh et. al., J. Biol. Chem. 2019, 294 (38), 14020-14032). To establish assay conditions for competition binding, enzyme titration/saturation binding experiments were initially performed. Bocillin-FL was prepared at 0.2 μM in a buffer comprised of 50 mM Hepes (pH 8.0), 300 mM NaCl and 10% (v/v) glycerol for reactions with E. coli, P. aeruginosa and N. gonorrhoeae PBPs, and 25 mM Tris (pH 8.0), 200 mM NaCl, 10% (v/v) glycerol and 0.005% (v/v) Tween 20 for reactions with A. baumannii PBPs. Saturation binding was performed by mixing 40 μl of PBP solutions ranging in concentrations from 0-24 μM with 40 μl of the 0.2 μM Bocillin-FL solution, in individual wells of a black 384-well microplate. FP was measured immediately upon mixing (Excitation, 490 nm; Emission, 520 nm; g-factor, 0.96), using a Cytation3 (BioTek) microplate reader and measured continuously for up to 120 minutes. The FP response stabilized after 15 minutes for P. aeruginosa and A. baumannii PBP3, 30 minutes for E. coli PBP3 and A. baumannii PBP1a, and less than 1 minute for N. gonorrhoeae PBP2. […] The competition binding assay (80 μl final volume) was validated using beta-lactams and PBPs at final concentrations of: 1.5 μM for E. coli PBP3; 0.75 μM for P. aeruginosa PBP3; 1 μM for A. baumannii PBP1a; 0.2 μM for A. baumannii PBP3; and 0.25 μM for N. gonorrhoeae PBP2. Bocillin-FL was at 0.1 μM (0.05 μM with A. baumannii PBP1a) and beta-lactam concentrations ranged from 0-1,000 μM. E. coli PBP3 was incubated with increasing concentrations of ampicillin in a black 384-well microplate (Corning) for 30 minutes. P. aeruginosa PBP3 was incubated for 15 minutes with aztreonam, whereas A. baumannii PBP1a and PBP3 were incubated for 15 minutes with meropenem, and then Bocillin-FL was added followed immediately by the FP measurement for up to 60 minutes. […] The beta-lactam potency was reported as the concentration of beta-lactam required to reduce the amount of PBP bound-Bocillin-FL by 50% (EC50). […] The EC50 of aztreonam was determined to be <0.5 μM for P. aeruginosa PBP3. […] Binding assays for boronic acid PBP inhibitors were performed in an identical fashion for the respective PBPs.

T1 sequence (P0AD68 1-577): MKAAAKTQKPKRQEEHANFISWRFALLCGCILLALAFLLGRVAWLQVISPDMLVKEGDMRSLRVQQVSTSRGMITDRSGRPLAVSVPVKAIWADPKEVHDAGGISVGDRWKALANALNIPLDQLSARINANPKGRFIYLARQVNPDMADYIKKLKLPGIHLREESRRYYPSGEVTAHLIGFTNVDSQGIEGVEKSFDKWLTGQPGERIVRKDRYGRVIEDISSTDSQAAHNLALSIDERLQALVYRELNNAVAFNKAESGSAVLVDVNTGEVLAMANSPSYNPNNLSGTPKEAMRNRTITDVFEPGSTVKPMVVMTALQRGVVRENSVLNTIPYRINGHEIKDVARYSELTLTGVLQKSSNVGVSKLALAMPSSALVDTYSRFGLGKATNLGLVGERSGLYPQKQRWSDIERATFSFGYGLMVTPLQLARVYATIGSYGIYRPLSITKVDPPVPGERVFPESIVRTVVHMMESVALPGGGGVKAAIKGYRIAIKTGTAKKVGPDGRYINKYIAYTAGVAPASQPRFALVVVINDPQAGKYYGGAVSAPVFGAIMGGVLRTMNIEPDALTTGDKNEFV

Row | Structure (SMILES) | MIC (N. gonorrhoeae WHO L) | MIC (N. gonorrhoeae MS11) | EC50 [1]
1 | Nc1ncc(C(=O)N[C@@H](C(=O)N[C@H]2Cc3cccc(C(=O)O)c3OB2O)c2ccc(P(=O)(O)O)cc2)s1 (racemic) [Example 50, (R)-3-((S)-2-(2-aminothiazole-5-carboxamido)-2-(4-phosphonophenyl)acetamido)-2-hydroxy-3,4-dihydro-2H-benzo[e][1,2]oxaborinine-8-carboxylic acid and (R)-3-((R)-2-(2-aminothiazole-5-carboxamido)-2-(4-phosphonophenyl)acetamido)-2-hydroxy-3,4-dihydro-2H-benzo[e][1,2]oxaborinine-8-carboxylic acid] | 16 to 32 µg/mL (≈ 29.3 to 58.6 µM) | 4 to 8 µg/mL (≈ 7.32 to 14.6 µM) | 50 to 250 µM
2 | CN1CCC[C@@H]1C(=O)N[C@@H](C(=O)N[C@H]1Cc2cccc(C(=O)O)c2OB1O)c1ccc(P(=O)(O)O)cc1 (racemic) [Example 54, (R)-2-hydroxy-3-((S)-2-((R)-1-methylpyrrolidine-2-carboxamido)-2-(4-phosphonophenyl)acetamido)-3,4-dihydro-2H-benzo[e][1,2]oxaborinine-8-carboxylic acid and (R)-2-hydroxy-3-((R)-2-((R)-1-methylpyrrolidine-2-carboxamido)-2-(4-phosphonophenyl)acetamido)-3,4-dihydro-2H-benzo[e][1,2]oxaborinine-8-carboxylic acid] | 16 to 32 µg/mL (≈ 30.1 to 60.2 µM) | 16 to 32 µg/mL (≈ 30.1 to 60.2 µM) | 50 to 250 µM
3 | CCN1CCN(C(=O)N[C@H](C(=O)N[C@H]2Cc3ccc(F)c(C(=O)O)c3OB2O)c2ccc(P(=O)(O)O)cc2)C(=O)C1=O (single isomer, unassigned) [Example 9] | 4 to 8 µg/mL (≈ 6.6 to 13.2 µM) | 1 to 2 µg/mL (≈ 1.65 to 3.3 µM) | 50 to 250 µM
4 | Cn1cccc(C(=O)N[C@H](C(=O)N[C@H]2Cc3cccc(C(=O)O)c3OB2O)c2ccc(P(=O)(O)O)cc2)c1=O (single isomer, unassigned) [Example 181] | 16 to 32 µg/mL (≈ 28.8 to 57.6 µM) | 4 to 8 µg/mL (≈ 7.2 to 14.4 µM) | 50 to 250 µM
5 | O=C(O)c1cccc2c1OB(O)[C@@H](NC(=O)[C@@H](NC(=O)c1cccn(C(F)F)c1=O)c1ccc(P(=O)(O)O)cc1)C2 (single isomer, unassigned) [Example 190] | 16 to 32 µg/mL (≈ 27.1 to 54.1 µM) | 4 to 8 µg/mL (≈ 6.77 to 13.5 µM) | 10 to 50 µM
6 | O=C(O)c1cccc2c1OB(O)[C@@H](NC(=O)[C@H](NC(=O)c1cccn(C(F)F)c1=O)c1ccc(P(=O)(O)O)cc1)C2 (single isomer, unassigned) [Example 191] | 4 to 8 µg/mL (≈ 6.77 to 13.5 µM) | 1 to 2 µg/mL (≈ 1.69 to 3.38 µM) | < 10 µM
7 | O=C(O)c1cccc2c1OB(O)[C@@H](NC(=O)[C@@H](NC(=O)c1cnc3sccn3c1=O)c1ccc(P(=O)(O)O)cc1)C2 (single isomer, unassigned) [Example 194] | 16 to 32 µg/mL (≈ 26.7 to 53.5 µM) | 4 to 8 µg/mL (≈ 6.69 to 13.4 µM) | 10 to 50 µM
8 | O=C(O)c1cccc2c1OB(O)[C@@H](NC(=O)[C@H](NC(=O)c1cnc3sccn3c1=O)c1ccc(P(=O)(O)O)cc1)C2 (single isomer, unassigned) [Example 195] | 16 to 32 µg/mL (≈ 26.7 to 53.5 µM) | 4 to 8 µg/mL (≈ 6.69 to 13.4 µM) | < 10 µM
9 | O=C(N[C@@H](C(=O)N[C@H]1Cc2cccc(C(=O)O)c2OB1O)c1ccc(P(=O)(O)O)cc1)c1ccc(O)c(O)c1Cl [Example 49, (R)-3-((R)-2-(2-chloro-3,4-dihydroxybenzamido)-2-(4-phosphonophenyl)acetamido)-2-hydroxy-3,4-dihydro-2H-benzo[e][1,2]oxaborinine-8-carboxylic acid] |  |  | > 250 µM
10 | O=C(O)c1cccc2c1OB(O)[C@@H](NC(=O)C(NC(=O)[C@H]1CCCN1)c1ccc(P(=O)(O)O)cc1)C2 (stereo partly drawn) [Example 52, (3R)-2-hydroxy-3-(2-(4-phosphonophenyl)-2-((R)-pyrrolidine-2-carboxamido)acetamido)-3,4-dihydro-2H-benzo[e][1,2]oxaborinine-8-carboxylic acid] | 4 to 8 µg/mL (≈ 7.73 to 15.5 µM) | 16 to 32 µg/mL (≈ 30.9 to 61.9 µM) | > 250 µM
11 | O=C1CC[C@H](C(=O)NC(C(=O)N[C@H]2Cc3cccc(C(=O)O)c3OB2O)c2ccc(P(=O)(O)O)cc2)N1 (stereo partly drawn) [Example 53, (3R)-2-hydroxy-3-(2-((R)-5-oxopyrrolidine-2-carboxamido)-2-(4-phosphonophenyl)acetamido)-3,4-dihydro-2H-benzo[e][1,2]oxaborinine-8-carboxylic acid] | 16 to 32 µg/mL (≈ 30.1 to 60.2 µM) | 1 to 2 µg/mL (≈ 1.88 to 3.76 µM) | 50 to 250 µM
12 | O=C(O)c1cccc2c1OB(O)[C@@H](NC(=O)C(NC(=O)N1CCCNC1=O)c1ccc(P(=O)(O)O)cc1)C2 (stereo partly drawn) [Example 56, (3R)-2-hydroxy-3-(2-(2-oxohexahydropyrimidine-1-carboxamido)-2-(4-phosphonophenyl)acetamido)-3,4-dihydro-2H-benzo[e][1,2]oxaborinine-8-carboxylic acid] | 16 to 32 µg/mL (≈ 29.3 to 58.6 µM) | 1 to 2 µg/mL (≈ 1.83 to 3.66 µM) | 10 to 50 µM
13 | NS(=O)(=O)NC(C(=O)N[C@H]1Cc2cccc(C(=O)O)c2OB1O)c1ccc(P(=O)(O)O)cc1 (stereo partly drawn) [Example 58, (3R)-2-hydroxy-3-(2-(4-phosphonophenyl)-2-(sulfamoylamino)acetamido)-3,4-dihydro-2H-benzo[e][1,2]oxaborinine-8-carboxylic acid] | 16 to 32 µg/mL (≈ 32.1 to 64.1 µM) | 16 to 32 µg/mL (≈ 32.1 to 64.1 µM) | > 250 µM
14 | CS(=O)(=O)NC(C(=O)N[C@H]1Cc2cccc(C(=O)O)c2OB1O)c1ccc(P(=O)(O)O)cc1 (stereo partly drawn) [Example 59, (3R)-2-hydroxy-3-(2-(methylsulfonamido)-2-(4-phosphonophenyl)acetamido)-3,4-dihydro-2H-benzo[e][1,2]oxaborinine-8-carboxylic acid] | 16 to 32 µg/mL (≈ 32.1 to 64.2 µM) | 16 to 32 µg/mL (≈ 32.1 to 64.2 µM) | > 250 µM
15 | CC(C)S(=O)(=O)NC(C(=O)N[C@H]1Cc2cccc(C(=O)O)c2OB1O)c1ccc(P(=O)(O)O)cc1 (stereo partly drawn) [Example 60, (3R)-2-hydroxy-3-(2-((1-methylethyl)sulfonamido)-2-(4-phosphonophenyl)acetamido)-3,4-dihydro-2H-benzo[e][1,2]oxaborinine-8-carboxylic acid] | 16 to 32 µg/mL (≈ 30.4 to 60.8 µM) | 16 to 32 µg/mL (≈ 30.4 to 60.8 µM) | > 250 µM
16 | O=C(O)c1cccc2c1OB(O)[C@@H](NC(=O)C(NS(=O)(=O)C1CC1)c1ccc(P(=O)(O)O)cc1)C2 (stereo partly drawn) [Example 61, (3R)-3-(2-(cyclopropanesulfonamido)-2-(4-phosphonophenyl)acetamido)-2-hydroxy-3,4-dihydro-2H-benzo[e][1,2]oxaborinine-8-carboxylic acid] | 16 to 32 µg/mL (≈ 30.5 to 61 µM) | 16 to 32 µg/mL (≈ 30.5 to 61 µM) | 50 to 250 µM
17 | O=C1CC[C@@H](C(=O)NC(C(=O)N[C@H]2Cc3cccc(C(=O)O)c3OB2O)c2ccc(P(=O)(O)O)cc2)N1 (stereo partly drawn) [Example 64, (3R)-2-hydroxy-3-(2-((S)-5-oxopyrrolidine-2-carboxamido)-2-(4-phosphonophenyl)acetamido)-3,4-dihydro-2H-benzo[e][1,2]oxaborinine-8-carboxylic acid] | 16 to 32 µg/mL (≈ 30.1 to 60.2 µM) | 4 to 8 µg/mL (≈ 7.53 to 15.1 µM) | 50 to 250 µM
18 | CC(=O)N1CCC[C@H]1C(=O)NC(C(=O)N[C@H]1Cc2cccc(C(=O)O)c2OB1O)c1ccc(P(=O)(O)O)cc1 (stereo partly drawn) [Example 65, (3R)-3-(2-((S)-1-acetylpyrrolidine-2-carboxamido)-2-(4-phosphonophenyl)acetamido)-2-hydroxy-3,4-dihydro-2H-benzo[e][1,2]oxaborinine-8-carboxylic acid] | 16 to 32 µg/mL (≈ 28.6 to 57.2 µM) | 16 to 32 µg/mL (≈ 28.6 to 57.2 µM) | > 250 µM
19 | O=C(NCCN1CCN(C(=O)NC(C(=O)N[C@H]2Cc3ccc(F)c(C(=O)O)c3OB2O)c2ccc(P(=O)(O)O)cc2)C(=O)C1=O)c1ccc(O)c(O)c1Cl (stereo partly drawn) [Example 120, (3R)-3-(2-(4-(2-(2-chloro-3,4-dihydroxybenzamido)ethyl)-2,3-dioxopiperazine-1-carboxamido)-2-(4-phosphonophenyl)acetamido)-7-fluoro-2-hydroxy-3,4-dihydro-2H-benzo[e][1,2]oxaborinine-8-carboxylic acid] |  |  | < 10 µM
